# Source: US12605653B2, “Anionic switchable hydrophilicity solvents” (QUEEN'S UNIVERSITY AT KINGSTON, priority 2022, dated 2026)
# Legend:
# [1] = Evaluation of the switching behaviour of ASHS systems (carboxylic acid/base/water) under air and 1 bar of CO2; assay type: physicochemical; settings: for Behaviour of the system after CO2 addition / pH under 1 bar of CO2 / pH under air: 20° C.
# Procedure: Base solutions were prepared by combining the desired base and water (mass for components measured in an analytical scale) into either a 10 or 25 mL graduated cylinder (containing a magnetic stir bar) depending on the final volume of the mixture obtained. The carboxylic acid (mass measured using an analytical balance prior to addition) being studied was added to the base solution, and the mixture was mixed with the help of a magnetic stir plate. The amount of base and water used were selected based on the acid:base:water ratio desired. Experiments were carried out using stoichiometric and substoichiometric amounts of the base relative to the number of mols of acid added. In addition, the quantity of water used was adjusted based on the acid:water mass ratio desired. A typical experiment would contain 1 g of the carboxylic acid; between 0.4 and 1 mol of base per mol of acid; and a water mass varying from 1 to 9.5 g.
# During a typical experiment, CO2 would be added for approximately 2 h at atmospheric pressure. At the end of the 2 h, the sparge tube would be removed, and the number and volume of the phases obtained would be recorded. The pH was once again recorded. For mixtures with only 1 phase, the pH of that phase was recorded. While for mixtures with 2 phases, the pH of the aqueous phase was recorded.
# In the systems in which the base:acid mole ratio and the water:acid mass ratio were being studied, a slight modification from this method was used. The acid being tested (1 g) was mixed with 1 g of water and the required amount of NaOH (based on the acid:base molar ratio desired) to prepare the mixture. […]
# The base solution was then added to the carboxylic acid, and the next steps followed the procedure previously described.
# [2] = Switching behaviour of ASHS systems under elevated pressures of CO2; assay type: physicochemical; settings: EHA:NaOH:H2O combinations that did not become biphasic upon 1 bar of CO2
# Procedure: The sight gauge was kept at a constant temperature (20° C.) in a water bath. The solutions were maintained under stirring due to a magnetic stir bar controlled by a magnetic stir plate. To maximize the stirring, the vessel was placed on its side (horizontal position). The mixture was then pressurized to 10 bar of CO2 in the sight gauge. In order to determine the volume of the phases obtained, measurements of the height of the water-rich and the carboxylic acid phase were obtained using a cathetometer while the vessel was in a vertical position. The relationship between height and internal volume on the sight gauge is known. The vessel was then slowly depressurized. The phases were collected using a glass pipette.
# [3] = EHA as solvent
# [4] = binary mixtures: score of the worse actor of the two; cited from earlier work
# [5] = binary mixtures: score of the worse actor of the two; cited from earlier work; remark: listed apart in the source
# [6] = binary mixtures: score of the worse actor of the two; cited from earlier work; remark: listed apart in the source
# fish = settings: 96 hr LC50 (fish); binary mixtures: worse actor; cited from earlier work
# [7] = specific target organ toxicity, single exposure; binary mixtures: worse actor; cited from earlier work
# [8] = NOEC or ECx; binary mixtures: worse actor; cited from earlier work
# [9] = binary mixtures: worse actor; cited from earlier work
# [10] = binary mixtures: worse actor; cited from earlier work; remark: listed apart in the source
# [11] = base 3DMAP, base:acid mole ratio 0.50:1, H2O:acid mass ratio 2.5:1
# [12] = base DMEA, base:acid mole ratio 0.55:1, H2O:acid mass ratio 2.5:1
# [13] = base Jeffamine D-230 (two moles acid per mole D-230), H2O:acid mass ratio 12:1
# [14] = base Jeffamine D-230 (two moles acid per mole D-230), H2O:acid mass ratio 15:1
# [15] = base MDEA, base:acid mole ratio 0.55:1, H2O:acid mass ratio 2.5:1
# [16] = base TEA, MDEA, DMEA or 3-DMAP, base:acid mol ratio 1:1, H2O:acid mass ratio 1:1
# [17] = base TEA, MDEA, DMEA or 3-DMAP, base:acid mol ratio 1:1, H2O:acid mass ratio 2:1
# [18] = base TEA, MDEA, DMEA or 3-DMAP, base:acid mol ratio 1:1, H2O:acid mass ratio 6:1
# [19] = base TEA, MDEA, DMEA or 3-DMAP, base:acid mol ratio 1:1, H2O:acid mass ratio 15:1
# [20] = base TEA, base:acid mole ratio 0.55:1, H2O:acid mass ratio 2.5:1
# [21] = substoichiometric aqueous NaOH, 0.6 to 0.7 equivalents of base
smiles,measurement,setting,value
"CCCCC(CC)C(=O)O (centres unmarked) [EHA, 2-ethylhexanoic acid]",pH before the addition of CO2,"[1]; 0.8:1 NaOH:EHA mole ratio, 3:1 H2O:EHA mass ratio",7.2
same,Behaviour of the system,"[1]; 0.8:1 NaOH:EHA mole ratio, 3:1 H2O:EHA mass ratio, 1 bar CO2",did not present a switchable behaviour
same,pH before the addition of CO2,"[1]; 0.9:1 NaOH:EHA mole ratio, 1:1 H2O:EHA mass ratio",7.5
same,pH before the addition of CO2,"[1]; 0.9:1 NaOH:EHA mole ratio, 3:1 H2O:EHA mass ratio",7.2
same,pH before the addition of CO2,"[1]; 0.9:1 NaOH:EHA mole ratio, 4:1 H2O:EHA mass ratio",7.1
same,pH before the addition of CO2,"[1]; 0.9:1 NaOH:EHA mole ratio, 5:1 H2O:EHA mass ratio",7.2
same,Behaviour of the system,"[1]; 0.9:1 NaOH:EHA mole ratio, 5:1 H2O:EHA mass ratio, 1 bar CO2",presented a switchable behaviour
same,Behaviour of the system,"[1]; 0.9:1 NaOH:EHA mole ratio, H2O:EHA mass ratio from 1:1 to 3:1, 1 bar of CO2",do not present a switchable behaviour
same,Behaviour of the system,"[1]; 0.9:1 NaOH:EHA mole ratio, extra water beyond 4:1 H2O:EHA mass ratio",become biphasic under air
same,"pH under air, lowest value once extra water is added","[1]; 0.9:1 NaOH:EHA mole ratio, more water than 4:1, pH decreases from 7.1",6.6
same,Behaviour of the system,"[1]; 2.5:1 H2O:EHA mass ratio, 0.65 NaOH:EHA mol ratio, 1 bar CO2",switchable behaviour
same,Behaviour of the system,"[1]; 2.5:1 H2O:EHA mass ratio, 0.70 NaOH:EHA mol ratio, 1 bar CO2",remains monophasic after CO2 addition
same,Behaviour of the system after CO2 addition,"[1]; base 3DMAP, base:acid mole ratio 0.50:1, H2O:acid mass ratio 2.5:1, 1 bar CO2, threshold 50 vol % recovered",Phase separation above 50
same,pH under 1 bar of CO2,[1]; [11],6.64
same,pH under air,[1]; [11],6.53
same,Behaviour of the system after CO2 addition,"[1]; base DMEA, base:acid mole ratio 0.55:1, H2O:acid mass ratio 2.5:1, 1 bar CO2, threshold 50 vol % recovered",Phase separation above 50
same,pH under 1 bar of CO2,[1]; [12],6.69
same,pH under air,[1]; [12],6.57
same,Behaviour of the system after CO2 addition,"[1]; base Jeffamine D-230 (two moles acid per mole D-230), H2O:acid mass ratio 12:1, 1 bar CO2, partial = acid recovered smaller than mass added",Partial phase separation
same,pH under 1 bar of CO2,[1]; [13],6.94
same,pH under air,[1]; [13],6.98
same,Behaviour of the system after CO2 addition,"[1]; base Jeffamine D-230 (two moles acid per mole D-230), H2O:acid mass ratio 15:1, 1 bar CO2, partial = acid recovered smaller than mass added",Partial phase separation
same,pH under 1 bar of CO2,[1]; [14],6.74
same,pH under air,[1]; [14],8.34
same,Phase behaviour upon addition of 1 bar of CO2,"[1]; base Jeffamine D-230, TEA, MDEA, DMEA or 3DMAP, base:acid mole ratio 1:1, water:acid mass ratio 15:1 and other ratios",no phase separation was observed
same,Behaviour of the system after CO2 addition,"[1]; base MDEA, base:acid mole ratio 0.55:1, H2O:acid mass ratio 2.5:1, 1 bar CO2, threshold 50 vol % recovered",No phase separation
same,pH under 1 bar of CO2,[1]; [15],6.61
same,pH under air,[1]; [15],6.50
same,Behaviour of the system,"[1]; base NH4OH, 2:1 H2O:acid mass ratio, 1 bar CO2",phase switchable behaviour was not observed
same,Behaviour of the system,"[1]; base NaOH, 2:1 H2O:acid mass ratio, 1 bar CO2, narrow range of base:acid ratio",successful switchable behaviour
same,Behaviour of the system,"[1]; base NaOH, carboxylic acid:H2O mass ratio 1:2.5, carboxylic acid:NaOH mol ratio 1:0.6",Switchable
same,Behaviour of the system after CO2 addition,"[1]; base TEA, MDEA, DMEA or 3-DMAP, base:acid mol ratio 1:1, H2O:acid mass ratio 1:1, 1 bar CO2",No phase separation
same,pH under 1 bar of CO2,[1]; [16],7.50-8.05
same,pH under air,[1]; [16],7.50-8.30
same,Behaviour of the system after CO2 addition,"[1]; base TEA, MDEA, DMEA or 3-DMAP, base:acid mol ratio 1:1, H2O:acid mass ratio 2:1, 1 bar CO2",No phase separation
same,pH under 1 bar of CO2,[1]; [17],7.20-7.60
same,pH under air,[1]; [17],8.00-8.15
same,Behaviour of the system after CO2 addition,"[1]; base TEA, MDEA, DMEA or 3-DMAP, base:acid mol ratio 1:1, H2O:acid mass ratio 6:1, 1 bar CO2",No phase separation
same,pH under 1 bar of CO2,[1]; [18],6.20-6.70
same,pH under air,[1]; [18],7.50-8.10
same,Behaviour of the system after CO2 addition,"[1]; base TEA, MDEA, DMEA or 3-DMAP, base:acid mol ratio 1:1, H2O:acid mass ratio 15:1, 1 bar CO2",No phase separation
same,pH under 1 bar of CO2,[1]; [19],6.60-6.80
same,pH under air,[1]; [19],6.80-7.90
same,Behaviour of the system after CO2 addition,"[1]; base TEA, base:acid mole ratio 0.55:1, H2O:acid mass ratio 2.5:1, 1 bar CO2",No phase separation
same,pH under 1 bar of CO2,[1]; [20],6.53
same,pH under air,[1]; [20],6.48
same,Behaviour of the system,"[1]; base pyridine, 2:1 H2O:acid mass ratio",the acid remains as a separate phase under air
same,Phase behaviour upon addition of CO2,[1]; [21],phase separation was observed
same,Phases under air,[1]; [21],one phase
same,Behaviour upon the addition of 10 bar of CO2,[2],successful switchable behaviour
same,maximum EPS loading that still allows the next steps,[3],5 wt %
CN(C)C1CCCCC1 [CyNMe2],"Acute toxicity (oral), GHS category",[4],3 (Category 3 (H301) means 50 < LD50 ≤ 300 mg/kg)
same,"Acute toxicity (inhalation), GHS category",[5],3 (category 3 (H331) means 2 < LC50 ≤ 10 mg/L)
same,"Acute toxicity (dermal), GHS category",[6],3 (Category 3 (H311) means 200 < LD50 ≤ 1000 mg/kg)
same,"Acute aquatic toxicity, GHS category",fish,1 (Category 1 (H400) means 96 hr LC50 (fish) ≤ 1.0 mg/L)
"CCCCN(CCO)CCCC [Bu2NCH2CH2OH, N,N-dibutylethanolamine]","Organ toxicity, GHS category",[7],3
same,"Acute toxicity (oral), GHS category",[4],4 (category 4 (H302) means 300 < LD50 ≤ 2000 mg/kg)
same,"Acute toxicity (dermal), GHS category",[6],4 (category 4 (H312) means 1000 < LD50 ≤ 2000 mg/kg)
same,"Acute aquatic toxicity, GHS category",fish,3 (category 3 (H402) means 10 < 96 hr LC50 (fish) ≤ 100 mg/L)
same,"Chronic aquatic toxicity, GHS category",[8],3 (category 3 (H412) means 0.1 < NOEC or ECx ≤ 1)
same,"Skin irritation, GHS category",[9],1C
same,"Eye irritation, GHS category",[10],1
